ChEMBL document CHEMBL1159157, “Novel inhibitors of influenza sialidase related to GG167 Synthesis of 4-amino and guanidino-4H-pyran-2-carboxylic acid-6-propylamides; selective inhibitors of influenza a virus sialidase” (Bioorg Med Chem Lett, 1996)
≈ marks a conversion by molar mass, not a printed value.

Tests used:
Influenza B virus = test: In vitro antiviral activity was evaluated in a plaque reduction assay against influenza B; format: functional, organism-based
Influenza A virus = test: In vitro antiviral activity was evaluated in a plaque reduction assay against influenza A; format: functional, organism-based

CCCNC(=O)[C@@H]1OC(C(=O)O)=C[C@H](N)[C@H]1NC(C)=O
IC50 (Influenza B virus): 44 µg/mL (≈ 154 µM)

CC(=O)N[C@H]1[C@H]([C@H](O)[C@H](O)CO)OC(C(=O)O)=C[C@@H]1N
IC50 (Influenza B virus): 0.02 µg/mL (≈ 0.0689 µM) | IC50 (Influenza A virus): 470 ng/mL (≈ 1.62 µM)

CCCN(CCC)C(=O)[C@@H]1OC(C(=O)O)=C[C@H](NC(=N)N)[C@H]1NC(C)=O
IC50 (Influenza A virus): 0.1 ng/mL (≈ 0.000271 µM)

CCCN(C)C(=O)[C@@H]1OC(C(=O)O)=C[C@H](N)[C@H]1NC(C)=O
IC50 (Influenza B virus): 16 µg/mL (≈ 53.5 µM) | IC50 (Influenza A virus): 320 ng/mL (≈ 1.07 µM)

CCCNC(=O)[C@@H]1OC(C(=O)O)=C[C@H](NC(=N)N)[C@H]1NC(C)=O
IC50 (Influenza B virus): 3.8 µg/mL (≈ 11.6 µM) | IC50 (Influenza A virus): 280 ng/mL (≈ 0.855 µM)

CCCN(C)C(=O)[C@@H]1OC(C(=O)O)=C[C@H](NC(=N)N)[C@H]1NC(C)=O
IC50 (Influenza B virus): 2.2 µg/mL (≈ 6.44 µM) | IC50 (Influenza A virus): 11 ng/mL (≈ 0.0322 µM)
